Consider three molecules from patent US20230158177A1, “HYPOXIA-TARGETING CONTRAST AGENT AND METHODS OF USE THEREOF” (Arizona Board of Regents on behalf of Arizona State …, priority 2021, published 2023).

Several values for one entry are separate records, joined by “and”; a condition that tells them apart may be missing. Equal entries are not always repeated.

The conditions of data set [1]: cited from earlier work.
The conditions of data set [2]: mouse; cited from earlier work.
A short description of data set [3]: Relaxometry: relaxivity in a water phantom at 7T. It counts as physicochemical. As to conditions: for longitudinal relaxivity r1 / transverse relaxivity r2: in water; for longitudinal relaxivity r1: slope of linear fit of R1 vs [C]; for transverse relaxivity r2: slope of linear fit of R2 vs [C]. The method, then:
The basic paramagnetic properties i.e., relaxivity of chelated DFOB (FOB) and FOBNI was measured at 7T using a preclinical Bruker MRI scanner. The relaxivity of the two molecules were studied using a home-made 3D printed phantom capable of controlling temperature. The phantoms contained nine different concentrations of each contrast agents in water from 0-4 mM for FOB and 0-10 mM for FOBNI. The imaging parameters for this study were as matrix size 64×64, the field of view 2.56 cm×2.56 cm and TR=205-5000 ms, […] for the T1 map and TR=5000 ms, TE=8-200 ms for the T2 map. The MR images were later analyzed in a homemade MATLAB code to calculate the T1 and T2 values for each pixel. Using the T1 and T2 values for each concentration and Ri=[C]ri+Ri^0 equation the relaxivity values were calculated by a linear fit on Ri and [C]. Where Ri (i=1 or 2) is the relaxation rate of the tissue, [C] is the concentration of the contrast agent, ri is the relaxivity of the contrast agent and the Ri^0 is the intrinsic relaxation rate of the water. FIG. 7A and FIG. 7B show the T1 and T2 maps for the phantom and a concentration map indicating the concentrations of FOB and FOBNI in each respective well.
FIG. 8 represents the result of the linear fit for R1 and R2 for the two contrast agents. […] Using the linear fit function, the following equations are acquired for relaxation rate vs concentration, R1=(2.06±0.06)[C]+(0.49±0.04) (in red) and R2=(2.75±0.06)[C]+(3.75±0.08) (in gray) for FOB and R1=(0.51±0.1)[C]+(0.44±0.03) (in red) and R2=(4.51±0.14)[C]+(3.87±0.19) (in gray) for FOBNI.

For data set [4], the system named is 3T3 fibroblast cells. Kind of data set: In vitro hypoxia-targeting study: T1 and T2 MRI of cell pellets. It counts as cell-based. The note with it: for Relaxation time T1 of exposed cell pellets / Relaxation time T2 of exposed cell pellets: 7 T; for contrast agent concentration in cell pellet: from the relaxivity equation for transverse relaxation rate. The method, then:
The in vitro study for hypoxia-targeting efficiency of FOBNI was assessed in a hypoxia chamber glove box capable of adjusting oxygen concentration, temperature and CO2 and equipped with a small centrifuge unit. The 3T3 fibroblast cells were grown in a T-150 flask once they reached the confluency of 80% divided equally to five T-75 flasks to ensure the flasks were identical before being exposed to contrast agents and different conditions. The cells were supplied with Dulbecco's Modified Eagle Medium (DMEM), fetal bovine serum (10%), and penicillin/streptomycin (1%). Once the five flasks reached the confluency of 75-80% the growth media were replaced with the following mediums.
Two flasks were supplied with fresh culture media supplemented with DFOB, two with fresh media and FOBNI and one with just fresh media as control. The control and one FOB and one FOBNI labeled flasks were placed in a regular cell incubator at 21% O2, 5% CO2 and 37° C. and the remaining two flasks were transferred to the hypoxia chamber at 1% O2, 5% CO2 and 37° C. All the samples were kept at defined conditions for 4 h before removing the media. The cells were washed three times with phosphate buffered saline (PBS) at the end of four hour incubation and were detached by being exposed to trypsin for 5 min. The collected cell mixtures in Eppendorf Tube were centrifuged at 1000 rpm for 5 min and the medium was removed. Afterwards, the cell pellets were suspended in PBS and again centrifuged three times to ensure the removal of unbound or free DFOB or FOBNI. Finally, to keep the cell pellets intact the tubes were filled with low temperature liquid agar and placed in the fridge to solidify.
MR Imaging—The samples were imaged using a rat brain surface coil at 7 T. The voxel wise T1 and T2 maps of the samples were calculated using MATLAB based software and the images from Variable Repetition Time Fast Spin Echo (VTR) Sequence and multi-echo spin echo sequence, respectively. The VTR sequence was performed with TE=8 ms and thirteen TR values ranging between (205-5000 ms). The images in multi-echo sequence were acquired with TE ranging between 8-200 ms and TR=5000 ms. The field of view was 2.56 cm×2.56 cm and the matrix size of 64×64 for all the experiments. The ROI analysis to calculate the T1 and T2 values for cell pellets were performed in MATLAB.
Statistics—All results are reported as means±standard deviations (SD). For statistical comparisons unpaired t-test was employed and confidence intervals α=0.05, 95% was used between specific means.

In data set [5] the test system is NIH-3T3 fibroblast cells. The data set can be described thus: Cytotoxicity: cell viability assay using Alamar blue. The note with it: for cell viability (Alamar blue): hypoxic and normoxic conditions. Type of data set: cell-based. The protocol:
To study the cytotoxicity of DFOB, NIH-3T3 fibroblast cells were used. The cells were exposed to different concentrations of DFOB for 4, 8, and 24 h under either hypoxic or normoxic conditions. Afterwards, the cells were washed with PBS and exposed to 10% Alamar blue in media for 4 h in their respective conditions. To assess the viability of the cells 100 µl of the exposed Alamar blue was collected in a 96-well plate using the spectrophotometer the absorbance was measured at 570 nm and 600 nm excitations and the viability of the cells was calculated.
Cytotoxicity assay for FOBNI was a viability test using Alamar blue. The results are summarized in FIG. 5 for normoxic conditions and FIG. 6 for hypoxic conditions. […] The increased viability, which is a translation of reduced Alamar blue in control samples of 8 h and 24 h can be attributed to the increased number of the cells in the control wells. After seeding the cells the cell number in the control wells could increase and that can influence the amount of reduced compound in absorbance test.
(Resazurin is reduced to fluorescent resorufin, in cell work by metabolically active cells.)

Setting [6] is: hypoxic (H), 1% O2, 4 h exposure.
Where [7] appears, read: normoxic (N), 21% O2, 4 h exposure.

For the molecule `CC(=O)N(O)CCCCCNC(=O)CCC(=O)N(O)CCCCCNC(=O)CCC(=O)N(O)CCCCCN` [DFOB, Deferoxamine B], the cell permeability result in data set [1] is “very low cell permeability”. Further, the circulation half-time result in data set [2] was “about 5 min”.

As to `CC(=O)N([O-])CCCCCNC(=O)CCC(=O)N([O-])CCCCCNC(=O)CCC(=O)N([O-])CCCCCN.[Fe+3]` [FOB, Feroxamine B, reference compound], in data set [3], the “longitudinal relaxivity r1” value was 2.06 ± 0.06 L/s/mmol and the “transverse relaxivity r2” value came out at 2.75±0.06. In addition, in data set [4] (setting [6]), the “Relaxation time T1 of exposed cell pellets” value (“Relaxation time T1” below) worked out at 2002 ± 143 ms and the “Relaxation time T2 of exposed cell pellets” value (“Relaxation time T2” for short) was 75.5 ± 15.0 ms. Moreover, the “contrast agent concentration in cell pellet” value (from here on “contrast agent concentration”) in data set [4] (hypoxic) is 3.45 mM. In data set [4] (setting [7]), the “Relaxation time T1” value stood at 2280 ± 222 ms; the “Relaxation time T2” value was 89.9 ± 11.21 ms and 89.9 ± 11.2 ms. The “contrast agent concentration” value in data set [4] (normoxic) is 2.67 mM.

Regarding “Feroxamine B conjugate of 2-nitroimidazole [FOBNI]”, in data set [3], the “decrease in r1 value compared to FOB” value was “about 75%”; the “longitudinal relaxivity r1” value was 0.51 L/s/mmol and 0.51 ± 0.1 L/s/mmol; the “transverse relaxivity r2” value stood at 4.51±0.14. In data set [4] (setting [6]), the “Relaxation time T1” value stood at 1909 ± 162 ms and the “Relaxation time T2” value was 32.4 ± 3.4 ms. Further, the “increase in pellet concentration, FOBNI vs FOB” value in data set [4] (hypoxic condition) came out at 1.73 fold. Further, the “contrast agent concentration” value in data set [4] (hypoxic) is 5.98 mM. Also, in data set [4] (setting [7]), the “Relaxation time T1” value stood at 1793 ± 165 ms and the “Relaxation time T2” value was 59.3 ± 9.3 ms. The “contrast agent concentration” value in data set [4] (normoxic) worked out at 2.88 mM. In data set [4] (vs FOB, seen in T2 values under normoxic conditions), the “cellular uptake after addition of nitroimidazole moiety” value is “increased the cellular uptake”. In addition, the “cell viability (Alamar blue)” value in data set [5] (100-400 μM, up to 24 h exposure, control of the 4 h exposure used, n=3) is “no significant reduction”. Further, the “cell viability (Alamar blue)” value in data set [5] (after 8 h and 24 h of exposure, control of each time point used) was “significant drop in cell viability”. Besides, in data set [5] (up to 8 h of direct exposure to the cells), the “cytocompatibility (cell viability assay)” value is reported as “cytocompatibility”.
